Experimental data taken from patent publication EP2975030B1, “DIHYDROPYRIDAZINE-3,5-DIONE DERIVATIVE” (Chugai Seiyaku Kabushiki Kaisha, priority 2013, dated 2014).

How the values were obtained:
[1] = test system: rat small-intestinal brush border membrane vesicles; assay: Inhibitory effect on 33PO4 uptake into rat small-intestinal brush border membrane vesicles (rapid filtration method); assay type: biochemical, Wistar female rat; settings: 1 µM test compound; 33PO4 uptake into rat small-intestinal BBMVs, 60 seconds
Method in brief: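 33PO4 uptake into rat small-intestinal brush border membrane vesicles measured by rapid filtration. Reactions were stopped with ice-cold buffer (110 mM NaCl, 1 mM KH2PO4, 10 mM HEPES pH 7.5), filtered and washed. Vesicle-associated radioactivity was counted by liquid scintillation.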

[2] = test system: adenine-induced renal failure rat; assay: Suppressive effect on rise in serum phosphorus concentration of adenine-induced renal failure rat (0.1% in feed, 3 days); assay type: in vivo, Wistar male rat; settings: feed or water, 72 h, rate of suppression of a rise in serum phosphorus concentration, 0.1% of mass concentration in feed
Source text: Test Example 5: Suppressive effect on rise in serum phosphorus concentration of adenine-induced renal failure rat Adenine was forcedly administered orally to each Wistar male rat (7-8 weeks old) to impair renal functions and thereby prepare a hyperphosphatemia model ([…], Nagano N, Burke SK, Fukushima N. Sevelamer hydrochloride prevents ectopic calcification and renal osteodystrophy in chronic renal failure rats. Kidney Int. 2003 Aug; 64 (2): 441-50). Each test compound was mixed at a ratio of 0.1% of mass concentration with feed. The animal was fed with a given amount of the feed for 3 days. A group given feed non-supplemented with a test compound was used as a reference pathological group, and an adenine-unadministered group given feed non-supplemented with a test compound was used as a normal group. 3 days after the start of administration of the test compound, blood was collected from the jugular vein, and serum was collected. Serum phosphorus concentrations were measured by the Fiske-Subbarow method. The rate of suppression of a rise in serum phosphorus concentration was determined according to the following expression: Rate (%) of suppression of a rise in serum phosphorus concentration = (1-[([…]-treatedpathologicalgroup); -(Serumphosphorusconcentrationofthenormalgroup)]/; [(Serumphosphorusconcentrationofthereferencepathologicalgroup)-(Serumphosphorusconcentrationofthenormalgroup)]) × 100 [formula] As a result, each test compound was confirmed to have a suppressive effect on a rise in serum phosphorus concentration. […]

COC[C@@H]1CCCN1CCOc1ccc(CN2C(=O)C(C(=O)Nc3ccc(C(F)(F)F)cc3-c3cc(C(F)(F)F)ncn3)=C(O)C3(CCC3)N2C)c(F)c1F [Example 345, 6-[[2,3-Difluoro-4-[2-[(2S)-2-(methoxymethyl)pyrrolidin-1-yl]ethoxy]phenyl]methyl]-9-hydroxy-5-methyl-7-oxo-N-[4-(trifluoromethyl)-2-[6-(trifluoromethyl)pyrimidin-4-yl]phenyl]-5,6-diazaspiro[3.5]non-8-ene-8-carboxamide]
Rate of uptake inhibition (%) (1 µM) [1]: 73%
inhibition in vivo at 0.1 %, 0.1 % in feed [2]: 19%

C[C@]12CCCN1N(Cc1ccc(OCCN3CCOCC3)c(F)c1F)C(=O)C(C(=O)Nc1ccc(C(F)(F)F)cc1-c1cc(C(F)(F)F)ncn1)=C2O [Example 157, (4aR)-1-[[2,3-Difluoro-4-(2-morpholin-4-ylethoxy)phenyl]methyl]-4-hydroxy-4a-methyl-2-oxo-N-[4-(trifluoromethyl)-2-[6-(trifluoromethyl)pyrimidin-4-yl]phenyl]-6,7-dihydro-5H-pyrrolo[1,2-b]pyridazine-3-carboxamide]
Rate of uptake inhibition (%) (1 µM) [1]: 89%
inhibition in vivo at 0.1 %, 0.1 % in feed [2]: 30%

C[C@]12CCCN1N(Cc1ccc(OCCCOC[C@H](O)CO)c(F)c1F)C(=O)C(C(=O)Nc1ccc(C(F)(F)F)cc1-c1ccc(C(F)(F)F)nc1)=C2O [Example 147, (4aR)-1-[[4-[3-[(2R)-2,3-Dihydroxypropoxy]propoxy]-2,3-difluorophenyl]methyl]-4-hydroxy-4a-methyl-2-oxo-N-[4-(trifluoromethyl)-2-[6-(trifluoromethyl)pyridin-3-yl]phenyl]-6,7-dihydro-5H-pyrrolo[1,2-b]pyridazine-3-carboxamide]
Rate of uptake inhibition (%) (1 µM) [1]: 57%
inhibition in vivo at 0.1 %, 0.1 % in feed [2]: 35%

CN1[C@@H](C(C)(C)C)C(O)=C(C(=O)Nc2ccc(Cl)cc2-c2ccc(C(F)(F)F)nc2)C(=O)N1Cc1ccc(OCCN2CCOCC2)c(F)c1F [Example 267, (3S)-3-tert-Butyl-N-[4-chloro-2-[6-(trifluoromethyl)pyridin-3-yl]phenyl]-1-[[2,3-difluoro-4-(2-morpholin-4-ylethoxy)phenyl]methyl]-4-hydroxy-2-methyl-6-oxo-3H-pyridazine-5-carboxamide]
Rate of uptake inhibition (%) (1 µM) [1]: 71%
inhibition in vivo at 0.1 %, 0.1 % in feed [2]: 18%

C[C@]12CCCN1N(Cc1cccc(Cl)c1F)C(=O)C(C(=O)Nc1cc(F)c(Br)c(F)c1)=C2O [Example 196, (4aR)-N-(4-Bromo-3,5-difluorophenyl)-1-[(3-chloro-2-fluorophenyl)methyl]-4-hydroxy-4a-methyl-2-oxo-6,7-dihydro-5H-pyrrolo[1,2-b]pyridazine-3-carboxamide]
Rate of uptake inhibition (%) (1 µM) [1]: 90%
inhibition in vivo at 0.1 %, 0.1 % in feed [2]: 35%

CN1[C@@H](C(C)(C)C)C(O)=C(C(=O)Nc2ccc(Cl)cc2-c2cc(C(F)(F)F)ncn2)C(=O)N1Cc1ccc(OCCN2CCOCC2)c(F)c1F [Example 265, (3S)-3-tert-Butyl-N-[4-chloro-2-[6-(trifluoromethyl)pyrimidin-4-yl]phenyl]-1-[[2,3-difluoro-4-(2-morpholin-4-ylethoxy)phenyl]methyl]-4-hydroxy-2-methyl-6-oxo-3H-pyridazine-5-carboxamide]
Rate of uptake inhibition (%) (1 µM) [1]: 52%
inhibition in vivo at 0.1 %, 0.1 % in feed [2]: 11%

Cc1c(C#N)ncnc1-c1cc(C(F)(F)F)ccc1NC(=O)C1=C(O)[C@H](C(C)(C)C)N(C)N(Cc2ccc(OCCN3CCOCC3)c(F)c2F)C1=O [Example 270, (3S)-3-tert-Butyl-N-[2-(6-cyano-5-methylpyrimidin-4-yl)-4-(trifluoromethyl)phenyl]-1-[[2,3-difluoro-4-(2-morpholin-4-ylethoxy)phenyl]methyl]-4-hydroxy-2-methyl-6-oxo-3H-pyridazine-5-carboxamide]
Rate of uptake inhibition (%) (1 µM) [1]: 75%
inhibition in vivo at 0.1 %, 0.1 % in feed [2]: 20%

C[C@]12CCCN1N(Cc1ccc(C#CCCCC(=O)O)c(F)c1F)C(=O)C(C(=O)Nc1ccc(C(F)(F)F)cc1-c1cc(C(F)(F)F)ncn1)=C2O [Example 129, 6-[4-[[(4aR)-4-Hydroxy-4a-methyl-2-oxo-3-[[4-(trifluoromethyl)-2-[6-(trifluoromethyl)pyrimidin-4-yl]phenyl]carbamoyl]-6,7-dihydro-5H-pyrrolo[1,2-b]pyridazin-1-yl]methyl]-2,3-difluorophenyl]hex-5-ynoic acid]
Rate of uptake inhibition (%) (1 µM) [1]: 63%
inhibition in vivo at 0.1 %, 0.1 % in feed [2]: 17%

C[C@]12CCCN1N(Cc1ccc(C#CCN3CCOCC3)c(F)c1F)C(=O)C(C(=O)Nc1ccc(C(F)(F)F)cc1-c1ccc(C(F)(F)F)nc1)=C2O [Example 140, (4aR)-1-[[2,3-Difluoro-4-(3-morpholin-4-ylprop-1-ynyl)phenyl]methyl]-4-hydroxy-4a-methyl-2-oxo-N-[4-(trifluoromethyl)-2-[6-(trifluoromethyl)pyridin-3-yl]phenyl]-6,7-dihydro-5H-pyrrolo[1,2-b]pyridazine-3-carboxamide]
Rate of uptake inhibition (%) (1 µM) [1]: 77%
inhibition in vivo at 0.1 %, 0.1 % in feed [2]: 39%

CSc1ccc(-c2cc(Cl)ccc2NC(=O)C2=C(O)[C@H](C(C)(C)C)N(C)N(Cc3ccc(OCCN4CCOCC4)c(F)c3F)C2=O)cn1 [Example 269, (3S)-3-tert-Butyl-N-[4-chloro-2-(6-methylsulfanylpyridin-3-yl)phenyl]-1-[[2,3-difluoro-4-(2-morpholin-4-ylethoxy)phenyl]methyl]-4-hydroxy-2-methyl-6-oxo-3H-pyridazine-5-carboxamide]
Rate of uptake inhibition (%) (1 µM) [1]: 80%
inhibition in vivo at 0.1 %, 0.1 % in feed [2]: 15%

C[C@]12CCCN1N(Cc1cccc(Cl)c1)C(=O)C(C(=O)Nc1ccc(C(F)(F)F)cc1-c1cc(C(F)(F)F)ncn1)=C2O [Example 181]
Rate of uptake inhibition (%) (1 µM) [1]: 85%

CN1N(Cc2ccc(OCCCCCOC[C@H](O)CO)c(F)c2F)C(=O)C(C(=O)Nc2ccc(C(F)(F)F)cc2-c2cc(C(F)(F)F)ncn2)=C(O)C12CCC2 [Example 391]
Rate of uptake inhibition (%) (1 µM) [1]: 42%

COc1cccc(-c2cc(C(F)(F)F)ccc2NC(=O)C2=C(O)[C@@]3(C)CCCN3N(Cc3ccc(C#CCCCCO)c(F)c3F)C2=O)c1OC [Example 135]
Rate of uptake inhibition (%) (1 µM) [1]: 90%

CN1N(Cc2cccc(F)c2F)C(=O)C(C(=O)Nc2ccc(C(F)(F)F)cc2-c2cc(C(F)(F)F)ncn2)=C(O)C12CCCC2 [Example 260]
Rate of uptake inhibition (%) (1 µM) [1]: 70%

CSc1cc(-c2cc(C(F)(F)F)ccc2NC(=O)C2=C(O)[C@@]3(C)CCCN3N(Cc3cccc(F)c3F)C2=O)cnc1C#N [Example 113]
Rate of uptake inhibition (%) (1 µM) [1]: 84%

Cc1cc(NC(=O)C2=C(O)[C@@H]3CCC(C)(C)N3N(Cc3cccc(F)c3)C2=O)c(C(F)(F)F)o1 [Example 4, (4aS)-1-[(3-Fluorophenyl)methyl]-4-hydroxy-7,7-dimethyl-N-[5-methyl-2-(trifluoromethyl)furan-3-yl]-2-oxo-5,6-dihydro-4aH-pyrrolo[1,2-b]pyridazine-3-carboxamide]
Rate of uptake inhibition (%) (1 µM) [1]: 32%

CN(CCOc1ccc(CN2C(=O)C(C(=O)Nc3ccc(C(F)(F)F)cc3-c3cc(C(F)(F)F)ncn3)=C(O)C3(CCCC3)N2C)c(F)c1F)C1CCOC1 (centres unmarked) [Example 366]
Rate of uptake inhibition (%) (1 µM) [1]: 38%

C[C@]12CCCN1N(Cc1ccc(OCCCCCO)c(F)c1F)C(=O)C(C(=O)Nc1ccc(C(F)(F)F)cc1-c1cc(C(F)(F)F)ncn1)=C2O [Example 162]
Rate of uptake inhibition (%) (1 µM) [1]: 73%

CN1N(Cc2ccc(OCCOCCOCCOCCC(=O)NCC(O)CO)c(F)c2F)C(=O)C(C(=O)Nc2ccc(C(F)(F)F)cc2-c2cc(C(F)(F)F)ncn2)=C(O)C12CCCC2 (centres unmarked) [Example 424]
Rate of uptake inhibition (%) (1 µM) [1]: 17%
